Measured values taken from ChEMBL document CHEMBL3507680, “University of Dundee, Gates Library screen for HepG2 cell viability”.

Assay: Human HepG2 cell viability assay in 384 well format
Type: toxicity, cell-based
Set-up: dose 125 nL, time 70.5 hour; concentration not given beside the values
Details: HepG2 cells, read-out: Inhibition

Structure (SMILES)	cytotoxicity at 70.5 h
NCCc1nc(N[C@@H](CO)c2ccccc2)c2ccccc2n1	7.85%
CC(C)c1ccc(NC(=O)Cn2cc(I)cn2)cc1	-24.1%
CCn1c(N)nc2cc(C(=O)NCCCc3ccccn3)cnc21	-15%
NC(=O)CN1CCCN(C(=O)CCOc2ccccc2Cl)CC1	-6.92%
COC(=O)CCCNC(=O)COc1ccccc1C(F)(F)F	-6.88%
CCSc1nnc(N(CCC#N)CCC#N)s1	1.21%
CCc1nccn1C1CCCN(C(=O)c2ccc3c(c2)nnn3C)C1 (stereo not drawn)	-5.62%
COCc1c(C(=O)NC2CCCC2)nnn1-c1ccc(C)cc1	22.4%
Cc1ccc(S(C)(=O)=O)cc1NCC(=O)NCCC1=CCCCC1	-9.03%
COCc1noc(-c2ccc(N(C)Cc3nccs3)nc2)n1	-6.18%
Cc1nn(CC(C)C)c(N(C)C)c1CNCc1cccnc1N(C)C	-13.5%
CCOCC1CN(C(=O)c2cc(C)oc2C)Cc2c1cnn2C (stereo not drawn)	-0.121%
Cc1noc(NC(=O)c2ccc(Br)s2)n1	24.3%
COc1cccc(CN(C)S(=O)(=O)N2CCOCC2)c1	2.16%
CC(C)(C)c1nc2cc(NC(=O)Cn3ccc(=O)[nH]c3=O)ccc2o1	-13.2%
CCC(CNc1ncnc2oc(C)nc12)Cc1ccccc1 (stereo not drawn)	-1.88%
CC1CN(C(=O)c2cc(=O)[nH]c3ccc(F)cc23)CCO1 (stereo not drawn)	19.1%
CC(=O)N1C[C@@H]2CC[C@H](C1)N(S(=O)(=O)c1ccccc1Cl)C2	-14.4%
N#CC1(C(=O)N2C[C@H]3CC[C@@H]2CN(Cc2ccncc2)C3)CCOCC1	-23.5%
O=C1CC(c2ccc(F)cc2)c2snc(C(=O)O)c2N1 (stereo not drawn)	-10.3%
CCS(=O)(=O)N1C[C@@H](O)[C@H](N(C)Cc2ccc(F)cc2)C1	0.693%
CCN1CCC(c2cncc(N(C)C)n2)CC1	1.63%
Cc1nccn1CCCC(=O)N1CCCC(c2noc(C(C)C)n2)C1 (stereo not drawn)	-2.96%

Structure (SMILES)	cytotoxicity at 70.5 h
CCCN(Cc1cnn(C)c1)S(=O)(=O)c1cc(C)cc(F)c1	23.3%
COC[C@@]12CCO[C@@H]1CCN(C(=O)COc1ccc(C)cc1)C2	-2.71%
COc1ccc(-c2nc3c([nH]2)CCNC3C(=O)O)c2ccccc12 (stereo not drawn)	-7.46%
Cc1[nH]c(-c2ccccc2)nc1C(=O)N1CCc2[nH]cnc2C1C(=O)O (stereo not drawn)	-8.84%
COCCOc1ccccc1C(=O)N1CCCC(c2cc(C)[nH]n2)C1 (stereo not drawn)	0.71%
Cn1ccc(NC2CCN(C3CC3)C2=O)n1 (stereo not drawn)	11.7%
Cc1ccccc1C1CCCN1C(=O)CN1CC2(CCNCC2)OC1=O (stereo not drawn)	-4.74%
CCCC(=O)NCC(Cc1cccc(F)c1)N1CCCC1=O (stereo not drawn)	-3.15%
COc1ccc(-c2nc(CN3CC(n4cccn4)C3)no2)cc1	-5.24%
CN1CCCC(Cc2cncc(Br)c2)CC1 (stereo not drawn)	0.975%
COCC(=O)Nc1ccc(-c2noc([C@@H]3CCCN3C(C)C)n2)cn1	-2.85%
Cc1nc(CN(C)C2CCN(CCc3cccs3)C2)no1 (stereo not drawn)	23.7%
O=C(NC1CCCCC1)N1CCC(N2Cc3ncccc3C2=O)CC1	-13.7%
Cc1nc(C2CCCN2CC(=O)N(C)Cc2ccsc2)no1 (stereo not drawn)	12.6%
CO[C@H]1CCN(C(=O)Cc2ccccn2)[C@H]1Cc1ccncc1	-7.06%
CCC[C@H]1CN(S(C)(=O)=O)C[C@@H]1NC(=O)Cc1ccc(F)cc1C	-1.4%
N#Cc1c(N)nc2c(c1-c1cnc(N3CCCC3)nc1)COCC2	-5.19%
O=C(CN1CCN(c2ccnc3c(F)ccc(F)c23)CC1)NC1CC1	0.111%
Cc1cccnc1CNCC1(O)CCCN(CC2CCC2)C1=O (stereo not drawn)	2.29%
Cc1nc(CCCNC(=O)C2CC(=O)N(C(C)(C)C)C2)sc1C (stereo not drawn)	-7.69%
Cc1cc(C)n(CCNCc2cc(-c3ccccc3)c[nH]c2=O)n1	-9.26%
CC(C)c1nc(O)c2nnn(C[C@@H]3CCCN(Cc4ccsc4)C3)c2n1	-2.22%
Cc1nnc(CN(C)CCCOc2ccc(Cl)cc2)o1	-10.2%

Structure (SMILES)	cytotoxicity at 70.5 h
CCNc1cc2c(nn1)CCN(C(=O)c1ccc(CNC(C)=O)o1)C2	-5.9%
CCc1nnc(SC2CCCN(c3cccc(F)c3)C2=O)n1C (stereo not drawn)	-8.7%
O=c1c2cccc(F)c2ncn1CCN1CCOCC1	-3.65%
Cn1cc(Br)cc1C(=O)NC1(C#N)CC1	15.5%
O=C1NCC(C(=O)N(Cc2ccc(C(F)(F)F)cc2)C2CC2)N1 (stereo not drawn)	23.5%
COC(=O)c1ccc(NS(=O)(=O)c2cnc(NC(C)=O)s2)cc1	-12%
O=C(CCN1CCC(c2cc3ccccc3[nH]2)CC1)N1CCOCC1	-1.25%
CNC(=O)CCS(=O)(=O)Cc1cc(Cl)c2c(c1)OCCCO2	-3.42%
O=C(Cc1ccsc1)N1C[C@@H]2OCCN(CC3CC3)[C@@H]2C1	1.39%
COCC1CN(Cc2cc(C)on2)Cc2cn(C)nc21 (stereo not drawn)	3.15%
CCCN1CCC(NC(=O)c2csc(C)c2-c2ccccc2)CC1	-9.07%
Cc1[nH]/c(=N\C(=O)c2csc(NC3CC3)n2)sc1C	-5.91%
CS(=O)(=O)CCSC1CCN(c2ccccc2F)C1=O (stereo not drawn)	-14.2%
O=C(NCc1ccoc1)c1ccc(C2CCCN2CC2CCOCC2)s1 (stereo not drawn)	38.9%
COCCCNC(=O)Nc1c(C)cccc1C(C)C	-9.85%
Cc1c(C2CCCN(C(=O)c3ccn(C)n3)C2)n2c(nc1=O)CCC2 (stereo not drawn)	-7.35%
COc1ccc(-c2cc(C[C@@H]3C[C@H](N(C)C)C3(C)C)no2)cc1	5.02%
COc1ccc(C2C3=C(COC3=O)Nc3[nH]nc(C)c32)cc1OC (stereo not drawn)	-22.8%
CCCS(=O)(=O)N1C[C@H]2C[C@H](C(=O)Nc3cccnc3)[C@@H](C1)O2	-4.17%
CCC(CC)C(=O)NCc1cnn(CC)c1	-13.4%
COc1cccc(CN2CCC(c3nnc(-c4cnc(C)cn4)o3)C2)c1 (stereo not drawn)	-13.5%
CN1CC2(CCN(C(=O)c3ccc(-n4cnnc4)cc3Cl)CC2)OC1=O	-4.9%
CCc1nc(CN(C(C)=O)C2CCN(CC3CCOCC3)C2)no1 (stereo not drawn)	-9.95%

Structure (SMILES)	cytotoxicity at 70.5 h
Cc1cc(NC(=O)CNC(C)(C)c2nc(C)c(C)s2)no1	-7.18%
COCCNC(=O)NC1(c2nc(C)no2)CCCCC1	-0.559%
Cc1nc(CN(C)C(=O)c2cc(C)sc2NC(=O)C(C)(C)C)no1	-11.2%
CN(C)c1cccc(C(=O)N2C[C@H]3CC[C@@H]2CN(C(=O)C2CCC2)C3)c1	0.254%
CCc1noc(C(C)N2CCC(NC(=O)c3ccc(C)s3)CC2)n1 (stereo not drawn)	-7.01%
Cc1nc(COc2cccc(C#N)c2)no1	2.53%
O=C(NCCN1CCCC1)Nc1cc(C(=O)N2CCOCC2)ccc1Cl	-8.22%
CCc1nc(C2CCCN2Cc2ncc(C)c(OC)c2C)no1 (stereo not drawn)	-5.08%
O=C(CCn1cncn1)NC1(c2cccc(Br)c2)CCC1	-2.65%
COCc1ccc(C(=O)N2CCN(CC(C)O)CC2)cc1 (stereo not drawn)	-3.37%
CCN1CCC(NC(=O)NCC(O)c2ccc(Cl)c(F)c2)CC1 (stereo not drawn)	6.86%
CC(C)N(CCO)C(=O)C1CCC(=O)N(CCc2cccc(F)c2)C1 (stereo not drawn)	-10%
CCc1nc2c(NCC3COc4ccccc4C3)ncnc2o1 (stereo not drawn)	-1.81%
O=C(CN1CCCC1Cn1cncn1)Nc1ccnn1C1CCCC1 (stereo not drawn)	-4.96%
CCN(CC)C(=O)CCc1nc(-c2cnn3c(C)cc(C)nc23)no1	-121%
COCCO[C@@H]1C[C@H]2CN(C(=O)c3cnccn3)CCN2C1	-6.2%
O=C(Cc1ccccc1O)Nc1ccc(N2CCCC2)nc1	-10.3%
O=C(NCc1ccccn1)[C@]12COC[C@H]1CN(Cc1cccnc1)C2	-7.77%
CCOC(=O)CNC(=O)N1CCN(c2ncccn2)CC1	-4.84%
COc1ccc(CN2CCN(CC3CC3)[C@@H]3CS(=O)(=O)C[C@@H]32)cc1O	-2.14%
CCN1C(=O)COC[C@@H]1[C@H](O)c1ccc(NC(=O)COC)cc1	11%
CCCC(=O)N1CCc2c(CNS(C)(=O)=O)cncc2C1	-8.58%
Cc1cnn(CC(=O)N2CCC3(CCC(=O)N(CCCO)C3)CC2)c1	0.675%

Structure (SMILES)	cytotoxicity at 70.5 h
CCc1cccc(OCC(=O)N2CCCC(n3cncn3)C2)c1 (stereo not drawn)	-9.33%
CCc1ccc(CN2CCCC(CO)(CCOC)C2)cc1 (stereo not drawn)	-8.83%
COc1cccc2c1OCC(C(=O)NCc1ncc3c(n1)CCC3)C2 (stereo not drawn)	-9.1%
Cc1noc([C@@H]2CCO[C@@H]3CCN(Cc4ccc(C)s4)C[C@@H]32)n1	-10.1%
O=C(O)CC1COCCN1Cc1ccccc1OCCc1ccccc1 (stereo not drawn)	-3.62%
Cc1csc2ncnc(N3CCC(Cn4cc(C(C)(C)N)nn4)CC3)c12	2.54%
COc1ccc(C[C@H]2CN(c3nnc(C)s3)CC[C@H]2OC)cc1	-10.2%
O=C1CC(c2ccsc2)c2sc(C(=O)O)c(-c3ccccc3)c2N1 (stereo not drawn)	-11.4%
CC(C)n1nnnc1-c1ccc(NC(=O)CC(F)(F)F)cc1F	-1.35%
COc1ccc(N2CCCC3(C2)CN(c2cccnc2)CCO3)cc1 (stereo not drawn)	-9.47%
Cc1ccc2c(n1)N(CCn1cccn1)CCN(C1CCOCC1)C2	-5.52%
CN(C(=O)c1ccc(Cl)c(S(C)(=O)=O)c1)c1ccccc1	0.806%
COc1ccc(-c2nc(C#N)c(N(C)C)o2)cc1OC	-5.52%
COCCN1CCC2(CCCN(C(=O)c3cnoc3C)C2)C1=O (stereo not drawn)	-0.05%
COCCN(Cc1sccc1C)C(=O)C1CCN(C(C)C)CC1	-2.9%
CCS(=O)(=O)N1CCc2c(CN3CCOCC3)cncc2C1	-4.84%
O=C(COc1ccc(Cl)cc1)N1CCN(c2cnccn2)CC1	-0.713%
CSCC(CCO)NC(=O)Nc1cccc(Br)c1 (stereo not drawn)	-0.357%
Cn1ncc2c(=O)[nH]c(CN3CCCC3CCc3ccccc3)nc21 (stereo not drawn)	-1.66%
FC(F)(F)CCN(Cc1ccon1)C1CCCC1	-7.02%
CC(C)N1CC(C(=O)N2CCN(CCn3cccc3)CC2)CC1=O (stereo not drawn)	-3.03%
